The numbers were not newly measured in paper PMC9318694 (Molecules, 2022), which cites them from elsewhere.

A value given as a limit tells only on which side of the number the result lay.

D2R, sequence (P14416 whole entry): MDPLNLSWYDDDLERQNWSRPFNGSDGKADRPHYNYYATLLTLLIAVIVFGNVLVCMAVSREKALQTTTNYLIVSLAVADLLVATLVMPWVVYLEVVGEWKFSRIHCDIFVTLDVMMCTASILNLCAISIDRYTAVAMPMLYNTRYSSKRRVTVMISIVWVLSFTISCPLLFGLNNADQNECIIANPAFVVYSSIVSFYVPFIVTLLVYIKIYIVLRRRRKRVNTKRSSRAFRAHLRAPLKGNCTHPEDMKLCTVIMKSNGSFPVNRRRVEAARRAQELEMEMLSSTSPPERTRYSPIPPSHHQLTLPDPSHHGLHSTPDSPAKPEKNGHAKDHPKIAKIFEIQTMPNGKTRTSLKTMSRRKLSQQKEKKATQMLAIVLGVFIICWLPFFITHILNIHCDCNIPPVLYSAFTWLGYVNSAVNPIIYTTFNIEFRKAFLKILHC

The first data set concerns the target D2R (Homo sapiens, UniProt P14416). The conditions noted are these: Table S1; data set of actives, radio-ligand binding assays; ref ChEMBL, [50]-[70]; read-out: KI; cited from earlier work.
Take `Cc1cc(C)c2c(N)c(C(=O)NCCCCCN3CCN(c4cccc(Cl)c4Cl)CC3)sc2n1` [SC29, 3-amino-N-(5-(4-(2,3-dichlorophenyl)piperazin-1-yl)pentyl)-4,6-dimethylthieno[2,3-b]pyridine-2-carboxamide]: the Ki is 0.0112 µM.
`CC(C)CCN1CCN2c3cccc4[nH]cc(c34)CC2C1` (centres unmarked) [SC25, 8-isopentyl-6,6a,7,8,9,10-hexahydro-4H-pyrazino[1,2-a]pyrrolo[4,3,2-de]quinoline]: the Ki is 0.024 µM.
With `CC(C)(C)OC(=O)NCCCCCN1CCN(c2cccc(Cl)c2Cl)CC1` [SC28, tert-butyl (5-(4-(2,3-dichlorophenyl)piperazin-1-yl)pentyl)carbamate], the Ki is 0.0426 µM.
On to `Clc1cccc(C2CCN(CCCOc3ccc4scnc4c3)CC2)c1Cl` [SC7, 5-(3-(4-(2,3-dichlorophenyl)piperidin-1-yl)propoxy)benzo[d]thiazole], for which the Ki was 0.075 µM.
On to `C#CC1=CC[C@@H](N(CCC)CCCCNC(=O)c2ccc(OCCCc3cn(CCCC)nn3)c(OC)c2)CO1` [SC34, (R)-4-(3-(1-butyl-1H-1,2,3-triazol-4-yl)propoxy)-N-(4-((6-ethynyl-3,4-dihydro-2H-pyran-3-yl)(propyl)amino)butyl)-3-methoxybenzamide], for which the Ki is 0.0016 µM.
On to `C#CC1=CC[C@H](N(CCC)CCCCNC(=O)c2ccc(OCCCc3cn(CCCC)nn3)c(OC)c2)CO1` [SC35, (S)-4-(3-(1-butyl-1H-1,2,3-triazol-4-yl)propoxy)-N-(4-((6-ethynyl-3,4-dihydro-2H-pyran-3-yl)(propyl)amino)butyl)-3-methoxybenzamide], for which the Ki was 0.0049 µM.
In the case of `CCCCn1cc(CCCOc2ccc(C(=O)NCCCCN(CCC)C3Cc4ccccc4C3)cc2OC)nn1` [SC3, 4-(3-(1-butyl-1H-1,2,3-triazol-4-yl)propoxy)-N-(4-((2,3-dihydro-1H-inden-2-yl)(propyl)amino)butyl)-3-methoxybenzamide], the Ki was 0.012 µM.
With `CCCN(CCC)[C@@H]1Cc2cccc3nc(O)n(c23)C1` [SC17, (R)-5-(dipropylamino)-5,6-dihydro-4H-imidazo[4,5,1-ij]quinolin-2-ol], the Ki was 0.0114 µM.
On to `O=C1CCc2ccc(OCCCCN3CCCN(c4ccc(O)c5[nH]c(=O)ccc45)CC3)cc2N1` [SC52, 8-hydroxy-5-(4-(4-((2-oxo-1,2,3,4-tetrahydroquinolin-7-yl)oxy)butyl)-1,4-diazepan-1-yl)quinolin-2(1H)-one], for which the Ki is 0.0016 µM.
Consider `CCCCn1cc(CCCOc2ccc(C(=O)NCCCCN(CCC)[C@H]3CCc4c(O)cccc4C3)cc2OC)nn1` [SC37, (S)-4-(3-(1-butyl-1H-1,2,3-triazol-4-yl)propoxy)-N-(4-((5-hydroxy-1,2,3,4-tetrahydronaphthalen-2-yl)(propyl)amino)butyl)-3-methoxybenzamide], for which the Ki was 0.00047 µM.

Still in this data set, the particulars now being: Table S2; data set of inactives, radio-ligand binding (RLB) assays; ref ChEMBL, [71]-[92]; read-out: KI; cited from earlier work.
As to `COc1cccc(CCc2ccccc2OCCCN2CCN(c3cccc(Cl)c3)CC2)c1` [SC107, 1-(3-chlorophenyl)-4-[3-[2-[2-(3-methoxyphenyl)ethyl]phenoxy]propyl]piperazine], the Ki is 298 µM.
On to `N#CC(C#N)=Cc1ccc(CN2CCN(c3ccccc3)CC2)[nH]1` [SC71, 2-[[5-[(4-phenylpiperazin-1-yl)methyl]-1H-pyrrol-2-yl]methylidene]propanedinitrile], for which the Ki is > 100 µM.
As for `COc1cccc(CCc2ccccc2OCCCCN2CCc3cc(OC)c(OC)cc3C2)c1` [SC112, 6,7-dimethoxy-2-[4-[2-[2-(3-methoxyphenyl)ethyl]phenoxy]butyl]-3,4-dihydro-1H-isoquinoline], the Ki is > 1000 µM.
Regarding `COc1cccc(CCc2ccccc2OCCCN2CCN(C)CC2)c1` [SC123, 1-[3-[2-[2-(3-methoxyphenyl)ethyl]phenoxy]propyl]-4-methylpiperazine], the Ki is 565 µM.
In the case of `COc1cccc(CCc2ccccc2OCCCCN2CCN(c3cccc(C(F)(F)F)c3)CC2)c1` [SC110, 1-[4-[2-[2-(3-methoxyphenyl)ethyl]phenoxy]butyl]-4-[3-(trifluoromethyl)phenyl]piperazine], the Ki was > 1000 µM.
Regarding `COc1cc2c(cc1OC)CN(C=Nc1ccc3c(c1)C1SCCSC1CC3)CC2` (centres unmarked) [SC66, N-(2,3,4a,5,6,10b-hexahydrobenzo[f][1,4]benzodithiin-9-yl)-1-(6,7-dimethoxy-3,4-dihydro-1H-isoquinolin-2-yl)methanimine], the Ki was > 100 µM.
In the case of `COc1cccc(CCc2ccccc2OCCCCCN2CCc3cc(OC)c(OC)cc3C2)c1` [SC125, 6,7-dimethoxy-2-[5-[2-[2-(3-methoxyphenyl)ethyl]phenoxy]pentyl]-3,4-dihydro-1H-isoquinoline], the Ki is > 1000 µM.
On to `COc1cccc(CCc2ccccc2OCCCCN2CCN(c3cccc(Cl)c3)CC2)c1` [SC102, 1-(3-chlorophenyl)-4-[4-[2-[2-(3-methoxyphenyl)ethyl]phenoxy]butyl]piperazine], for which the Ki is > 1000 µM.
Turning to `Fc1ccc(N2CCN(Cc3cn4ccncc4n3)CC2)cc1` [SC95, 2-[[4-(4-fluorophenyl)piperazin-1-yl]methyl]imidazo[1,2-a]pyrazine], the Ki is 68 µM.
As to `COc1cccc(CCc2ccccc2OCCCCN2CCc3ccccc3C2)c1` [SC113, 2-[4-[2-[2-(3-methoxyphenyl)ethyl]phenoxy]butyl]-3,4-dihydro-1H-isoquinoline], the Ki is > 1000 µM.
As to `c1ccc(CCC2CN(Cc3nc4ccccc4[nH]3)CCO2)cc1` (centres unmarked) [SC127, 4-(1H-benzimidazol-2-ylmethyl)-2-(2-phenylethyl)morpholine], the Ki was > 100 µM.
`COc1cccc(CCc2ccccc2OCCN2CCN(c3ccc(F)cc3)CC2)c1` [SC109, 1-(4-fluorophenyl)-4-[2-[2-[2-(3-methoxyphenyl)ethyl]phenoxy]ethyl]piperazine]: the Ki was > 1000 µM.

Still in this data set, the particulars now being: active data set; ref ChEMBL; read-out: KI / binding affinity; cited from earlier work.
With `O=C1CCc2ccc(OCCCCN3CCCN(c4ccc(O)c5[nH]c(=O)ccc45)CC3)cc2N1` [SC52, 8-hydroxy-5-(4-(4-((2-oxo-1,2,3,4-tetrahydroquinolin-7-yl)oxy)butyl)-1,4-diazepan-1-yl)quinolin-2(1H)-one], the Ki was < 0.002 µM.

Still in this data set, the particulars now being: cited from earlier work.
In the case of `NC(=O)C[S@@+]([O-])C(c1ccccc1)c1ccccc1` [SC72, 2-[(R)-benzhydrylsulfinyl]acetamide], the Ki was > 100 µM.

Staying with this data set, now noted: read-out: KI; cited from earlier work.
In the case of `C#CC1=CC[C@H](N(CCC)CCCCNC(=O)c2cnn3ccccc23)CC1` [SC13, (R)-N-(4-((4-ethynylcyclohex-3-en-1-yl)(propyl)amino)butyl)pyrazolo[1,5-a]pyridine-3-carboxamide], the Ki is 0.0011 µM.
Turning to `COc1cccc(CCc2ccccc2OCCN2CCc3ccccc3C2)c1` [SC126, 2-[2-[2-[2-(3-methoxyphenyl)ethyl]phenoxy]ethyl]-3,4-dihydro-1H-isoquinoline], the Ki was > 1000 µM.
As to `C#CC1=CC[C@H](N(CCC)CCCCNC(=O)c2cc3ccccn3n2)CC1` [SC12, (R)-N-(4-((4-ethynylcyclohex-3-en-1-yl)(propyl)amino)butyl)pyrazolo[1,5-a]pyridine-2-carboxamide], the Ki is 0.0055 µM.
With `Oc1ccc(C2=CCC[C@@H](CN3CC=C(c4ccccc4)CC3)C2)cc1` [SC33, (R)-3'-((4-phenyl-3,6-dihydropyridin-1(2H)-yl)methyl)-2',3',4',5'-tetrahydro-[1,1'-biphenyl]-4-ol], the Ki was 0.00062 µM.
On to `CCCN(CCCCNC(=O)c1cc2ccccc2[nH]1)[C@@H]1Cc2cccc3c2n(c(=O)n3CCC)C1` [SC47, (R)-N-(4-((2-oxo-1-propyl-1,2,5,6-tetrahydro-4H-imidazo[4,5,1-ij]quinolin-5-yl)(propyl)amino)butyl)-1H-indole-2-carboxamide], for which the Ki is 0.00843 µM.
